Experiment [1] has as its system Rattus norvegicus. In words: Antiallergic activity in Brown Norway rat model of ovalbumin-induced asthma assessed as inhibition of infiltration of inflammatory cells in bronchoalveoli at 10 mg/kg, po qd for 3 consecutive days administered 1 hr prior to fourth exposure of antigen by hemocytometry based light microscopy relative to control. In kind it is functional.

Experiment [2] relates to Rattus norvegicus. In words: Antiallergic activity in Brown Norway rat model of ovalbumin-induced asthma assessed as inhibition of mucus secretion in airway lavage fluid at 10 mg/kg, po qd for 3 consecutive days administered 1 hr prior to fourth exposure of antigen by ELISA relative to control. The experiment is classed as functional.
The subject of experiment [3] is Rattus norvegicus. Nature of the experiment: Antiallergic activity in Brown Norway rat model of ovalbumin-induced asthma assessed as inhibition of airway hyperresponsiveness at 10 mg/kg, po qd for 3 consecutive days administered 1 hr prior to fourth exposure of antigen relative to control. The experiment is classed as functional.
For experiment [4], the system named is HEK293. In words: Selectivity ratio of IC50 for PGD2 receptor in human platelets to IC50 for human EP2 receptor expressed in HEK293 cells by cAMP accumulation assay. The experiment is classed as cell-based. On the technique in general: Changes in cAMP serve as a functional read-out for many G protein-coupled receptors.
The subject of experiment [5] is HEK293. In words: Selectivity ratio of IC50 for PGD2 receptor in human platelets to IC50 for human EP4 receptor expressed in HEK293 cells by cAMP accumulation assay. In kind it is cell-based.
In experiment [6] the test system is HEK293. In words: Selectivity ratio of IC50 for PGD2 receptor in human platelets to IC50 for human TP receptor expressed in HEK293 cells by cAMP accumulation assay. The experiment is classed as cell-based.
For experiment [7], the system named is HEK293. In words: Selectivity ratio of IC50 for PGD2 receptor in human platelets to IC50 for human FP receptor expressed in HEK293 cells by cAMP accumulation assay. The experiment is classed as cell-based.
Experiment [8] relates to HEK293. In words: Selectivity ratio of IC50 for PGD2 receptor in human platelets to IC50 for human EP1 receptor expressed in HEK293 cells by cAMP accumulation assay. The experiment is classed as cell-based.
In experiment [9] the test system is HEK293. Nature of the experiment: Selectivity ratio of IC50 for PGD2 receptor in human platelets to IC50 for human IP receptor expressed in HEK293 cells by cAMP accumulation assay. The experiment is classed as cell-based.
Experiment [10] deals with HEK293. Nature of the experiment: Selectivity ratio of IC50 for PGD2 receptor in human platelets to IC50 for human EP3 receptor expressed in HEK293 cells by cAMP accumulation assay. In kind it is cell-based.

As a reminder, the inhibition in vivo is how much of the control response was suppressed. Regarding `CC(C)Oc1ccc(S(=O)(=O)N2CCN(c3ccccc3OCC(=O)O)CC2)cc1`, the inhibition in vivo at 10 mg/kg with Rattus norvegicus [1] is 76%; in the experiment on Rattus norvegicus [2] it was 79%; with Rattus norvegicus [3], 59%.
Regarding `CC(C)Oc1ccc(S(=O)(=O)N2CCN(c3cccc(OCC(=O)O)c3)CC2)cc1`, the inhibition in vivo at 10 mg/kg worked out at 78% in the experiment on Rattus norvegicus [1], 78% in the experiment on Rattus norvegicus [2] and 50% in the experiment on Rattus norvegicus [3].
For the molecule `Cc1cc(C(=O)Nc2ccc(N3CCN(S(=O)(=O)c4ccc(OC(C)C)cc4)CC3)cc2OCC(=O)O)no1`, the Ratio IC50 in the experiment with HEK293 [4], with HEK293 [5], with HEK293 [6], in the experiment with HEK293 [7], with HEK293 [8] and in the experiment on HEK293 [9] was > 20 each time. In addition, the Ratio IC50 in the experiment with HEK293 [10] is > 20.
Consider `CC(C)Oc1ccc(S(=O)(=O)N2CCN(c3ccc(Cl)c(OCC(=O)O)c3)C(C)C2)cc1` (configuration not stated), for which the Ratio IC50 in the experiment with HEK293 [4], in the experiment with HEK293 [5], in the experiment on HEK293 [6], in the experiment on HEK293 [7], in the experiment with HEK293 [8] and in the experiment with HEK293 [9] was > 20 throughout. Moreover, the Ratio IC50 in the experiment on HEK293 [10] is > 20.
Take `COc1cccc(OC2CCN(S(=O)(=O)c3ccc(OC(C)C)cc3)CC2)c1CCC(=O)O`: the Ratio IC50 in the experiment with HEK293 [4], in the experiment on HEK293 [5], in the experiment with HEK293 [6], in the experiment with HEK293 [7], with HEK293 [8] and in the experiment on HEK293 [9] was > 20 each time. Besides, the Ratio IC50 with HEK293 [10] is > 20.
For the molecule `CC(C)Oc1ccc(S(=O)(=O)N2CCN(c3ccc(Cl)c(OCC(=O)O)c3)CC2C)cc1` (configuration not stated), the Ratio IC50 in the experiment on HEK293 [4], with HEK293 [5], in the experiment with HEK293 [6], in the experiment on HEK293 [7], with HEK293 [8] and with HEK293 [9] was > 20 in each case. Moreover, the Ratio IC50 with HEK293 [10] was > 20.
As for `CC(C)Oc1ccc(S(=O)(=O)N2CCN(c3ccc(-n4cccn4)c(OCC(=O)O)c3)CC2)cc1`, the Ratio IC50 in the experiment with HEK293 [4], with HEK293 [5], with HEK293 [6], in the experiment with HEK293 [7], in the experiment on HEK293 [8] and in the experiment with HEK293 [9] was > 20 throughout. Further, the Ratio IC50 in the experiment on HEK293 [10] is > 20.
For `CC(C)Oc1ccc(S(=O)(=O)N2CCC(Oc3ccccc3CCC(=O)O)CC2)cc1`, the Ratio IC50 with HEK293 [4], in the experiment with HEK293 [5], with HEK293 [6], in the experiment with HEK293 [7], with HEK293 [8] and in the experiment with HEK293 [9] was > 20 each time. In addition, the Ratio IC50 with HEK293 [10] is > 20.
Regarding `CC(C)Oc1ccc(S(=O)(=O)N2CCN(c3ccc4ncn(CC(=O)O)c4c3)CC2)cc1`, the Ratio IC50 in the experiment on HEK293 [4], in the experiment with HEK293 [5], with HEK293 [6], in the experiment with HEK293 [7], with HEK293 [8] and with HEK293 [9] was > 20 in each case. Besides, the Ratio IC50 in the experiment with HEK293 [10] was > 20.
Regarding `COC(=O)Nc1ccc(N2CCN(S(=O)(=O)c3ccc(OC(C)C)cc3)CC2)cc1OCC(=O)O`, the Ratio IC50 with HEK293 [4], with HEK293 [5], in the experiment with HEK293 [6], with HEK293 [7], in the experiment on HEK293 [8] and with HEK293 [9] was > 20 in each case. In the experiment on HEK293 [10], the Ratio IC50 is > 20.

These data come from ChEMBL document CHEMBL3880428, “Sulfonamide derivative having PGD2 receptor antagonistic activity” (2012).
